How the values were obtained:
L. major promastigotes = assay: Antileishmanial activity, MTT-based assay; format: cell-based, Leishmania major; details: for IC50: Leishmania major, promastigotes, 72 h incubation, MTT, error reported as σ; for Selectivity Index (SI) L. major: SI = IC50 MRC-5/IC50 parasite
Method: The in vitro antitrypanosomal and antileishmanial activity of the BODIPY derivatives were evaluated on the bloodstream form (BSF) of T. brucei and the promastigote form of L. major parasites. The toxicity of the compounds was determined after 72 h of incubation using the alamarBlue assay (for T. brucei) and the MTT assay (for L. major). The cytotoxicity of the compounds on a healthy human cell line (human lung fibroblast, MRC-5) was also determined after 72 h of incubation using the alamarBlue assay. The data were expressed as the half maximal inhibitory concentration (IC50). The selectivity index (SI) of each derivative was calculated by dividing the IC50 of MRC-5 cells into the IC50 of T. brucei or L. major. L. major (MHOM/IL/80/Friedlin) promastigotes were cultured at 28 °C, 5% CO2 in modified RPMI-1640 medium (Invitrogen, Carlsbad, CA, USA) supplemented with 10% hiFBS [49]. Parasites were maintained in culture in their […] growth phase (below 2 million parasites per mL for T. brucei and 10 million parasites per mL for L. major). The antileishmanial activity of the BODIPY derivatives was assessed using an MTT-based assay (Sigma-Aldrich, St. Louis, MO, USA). The stock solutions of the compounds were prepared in DMSO and the final DMSO percentage in each well was adjusted to be less than 1%. A total of 4 × 10^6 parasites per mL were incubated at 28 °C in 96-well plates (50 μL/well) alone or in the presence of an increasing concentration of compounds DMSO for 72 h. A total of 10 μL of MTT (5 mg/mL) were added to each well and parasites were incubated for 4 h at 28 °C. Finally, cells were lysed with 50 μL/well of 20% SDS. The plate was incubated at 37 °C for an extra hour and then, absorbance was measured at the Infinite F200 plate reader (TECAN Austria, GmbH, Grödig, Austria) at a wavelength of 540 nm. The IC50 was calculated as described above. Data are presented as the average of at least three independent measurements, all conducted in triplicate conditions.

T. brucei BSF = assay: Antitrypanosomal activity, alamarBlue assay; format: cell-based, Trypanosoma brucei; details: for Selectivity Index (SI) T. brucei: SI = IC50 MRC-5/IC50 parasite; for IC50: Trypanosoma brucei, bloodstream form, 72 h incubation, alamarBlue, error reported as σ
Method: The in vitro antitrypanosomal and antileishmanial activity of the BODIPY derivatives were evaluated on the bloodstream form (BSF) of T. brucei and the promastigote form of L. major parasites. The toxicity of the compounds was determined after 72 h of incubation using the alamarBlue assay (for T. brucei) and the MTT assay (for L. major). The cytotoxicity of the compounds on a healthy human cell line (human lung fibroblast, MRC-5) was also determined after 72 h of incubation using the alamarBlue assay. The data were expressed as the half maximal inhibitory concentration (IC50). The selectivity index (SI) of each derivative was calculated by dividing the IC50 of MRC-5 cells into the IC50 of T. brucei or L. major.
T. brucei (Lister 427, antigenic type MiTat 1.2, clone 221a, bloodstream forms, “single marker” S427 (S16)) were cultured at 37 °C, 5% CO2 in HMI-9 medium supplemented with 10% heat-inactivated fetal bovine serum (hiFBS, Invitrogen, Carlsbad, CA, USA), as previously described.
The antitrypanosomal activity of the BODIPY derivatives was determined by the alamarBlue® assay (ThermoFisher Scientific, Waltham, MA, USA). The stock solutions of the compounds were prepared in DMSO and the final DMSO percentage in each well was adjusted to be less than 1%. A total of 2 × 10^4 parasites per mL were incubated at 37 °C, 5% CO2 in 96-well plates (50 μL/well) alone or in the presence of an increasing concentration of compounds for 72 h. A total of 20 μL of resazurin solution (110 ng/mL) was then added to each well, and the parasites were incubated for 4 h at 37 °C. Finally, cells were lysed with 50 μL per well of SDS 3%. The plate was incubated at 37 °C for an extra hour and then, fluorescence intensity was measured with an Infinite F200 plate reader (Tecan Austria, GmbH, Grödig, Austria), exciting at 550 nm and recording the emission at 590 nm. The results are expressed as the concentration of a compound that reduces cell growth by 50% versus untreated control cells (IC50). Data are presented as the average of at least three independent measurements, all conducted in triplicate conditions.

[1] = system: MRC-5 cell line (human lung fibroblast); assay: Cytotoxicity, alamarBlue assay; format: cell-based; details: MRC5, healthy human lung fibroblasts, 72 h incubation, error reported as σ
Method: The in vitro antitrypanosomal and antileishmanial activity of the BODIPY derivatives were evaluated on the bloodstream form (BSF) of T. brucei and the promastigote form of L. major parasites. The toxicity of the compounds was determined after 72 h of incubation using the alamarBlue assay (for T. brucei) and the MTT assay (for L. major). The cytotoxicity of the compounds on a healthy human cell line (human lung fibroblast, MRC-5) was also determined after 72 h of incubation using the alamarBlue assay. The data were expressed as the half maximal inhibitory concentration (IC50). The selectivity index (SI) of each derivative was calculated by dividing the IC50 of MRC-5 cells into the IC50 of T. brucei or L. major. MRC-5 cell line (human lung fibroblast) was grown in a monolayer at 37 °C, 5% CO2 in DMEM medium (1 g/L glucose) supplemented with 10% hiFBS, 100 U/mL penicillin, […] and 2 mM L-glutamine. Cytotoxicity was measured in MRC-5 through alamarBlue® assay (ThermoFisher Scientific). The stock solutions of the compounds were prepared in DMSO and the final DMSO percentage in each well was adjusted to be less than 1%. A total of 5 × 10^3 cells per mL were seeded in 96-well plates (100 μL/well) with 24 h of incubation time before compound addition at 37 °C, 5% CO2. Then, the compounds were added at increasing concentrations (from 0 to 100 μM) and the plates were incubated for 72 h. A total of 20 μL of resazurin solution (110 ng/mL) was added to each well and cells were incubated for 4 h. Then, cells were lysed with 50 μL/well of 3% SDS. The plate was incubated at 37 °C for an extra hour and then, the fluorescence intensity was measured at the Infinite F200 plate reader (TECAN Austria, GmbH), exciting at 550 nm and recording the emission at 590 nm. The results are expressed as the concentration of a compound that reduces cell growth by 50% versus untreated control cells (IC50). Data are presented as the average of at least three independent measurements, all conducted in triplicate conditions.

[2] = Solubility in water (statement); format: physicochemical
Trypanosoma brucei = details: read-out: inhibitory concentration against T. brucei; cited from earlier work
Leishmania major = details: read-out: inhibitory concentration against L. major; cited from earlier work

Row | IC50 (L. major promastigotes) [µM] | IC50 (T. brucei BSF) [µM] | solubility in water (in words) [2] | SMILES | Selectivity Index (SI) L. major (L. major promastigotes) | Selectivity Index (SI) T. brucei (T. brucei BSF) | IC50 [1] [µM] | IC50 (Trypanosoma brucei) [µM] | IC50 (Leishmania major) [µM]
1 | > 100 | 38.3 ± 0.93 | – | CC1=C(C=O)C(C)=[N+]2C1=C(c1ccc(N(c3ccccc3)c3ccc(C=O)cc3)cc1)c1c(C)cc(C)n1[B-]2(F)F [Compound 3d] | <0.87 | 2.28 | 87.1 ± 3.28 | – | –
2 | > 50 | 28.1 ± 1.77 | low solubility in water | CC1=C(I)C(C)=[N+]2C1=C(c1c3ccccc3cc3ccccc13)c1c(C)c(I)c(C)n1[B-]2(F)F [Compound 4c] | <0.96 | 1.72 | 48.2 ± 1.13 | – | –
3 | – | – | – | CN(Cc1cnc2nc(N)nc(N)c2n1)c1ccc(C(=O)N[C@@H](CCC(=O)O)C(=O)O)cc1 [methotrexate] | – | – | – | 2.7 | 3.6

Source: paper PMC11085077, “Designing Antitrypanosomal and Antileishmanial BODIPY Derivatives: A Computational and In Vitro Assessment” (Molecules, 2024)
